Laboratory results reported in patent publication US6432683B1, “Preparation of 2-aminomuconate from 2-aminophenol by coupled enzymatic dioxygenation and dehydrogenation reactions” (The United States of America as represented by the …, priority 2000, dated 2002).

NC(=CC=CC(=O)O)C(=O)O [2-Aminomuconate, 2-aminohexa-2,4-diene-1,6-dioate]
half-life (buffer, pH 9.5): 20 h | amount lost on freezing and thawing (pH 8.0 in potassium phosphate buffer): 50% | decomposition on freezing and thawing (pH 9.5 (Tris-HCl)): about 2% | amount lost on storage (solution stored on ice for 50 h, 0.34 mM): 30%
